Laboratory results as given in patent US10266609B2, “Immunomodulating beta-1,6-D-glucans” (Innate Biotherapeutics, LLC, priority 2014, dated 2019).

Tested on: Anti-β-1,6-Glucan IgG antibodies (affinity purified from IVIG, Baxter)
Assay: ELISA: binding of oligosaccharides to anti-β-1,6-glucan antibodies; further: key: a plus (+) sign indicates that the glucan was active in the assay; a minus (−) sign indicates that the glucan was not active; the '+/−' symbol indicates inconclusive results
Conditions: plate coated with oligosaccharide in PBS; 40 ug/mL anti-Beta 1,6 Glucan IgG; anti-human IgG-HRP, TMB, absorbance at 620 nm
Protocol: Binding of oligosaccharides to anti-β-1,6-glucan antibodies is performed as described in the following protocol.
• 1. […] Anti-β-1,6-Glucan IgG antibodies (affinity purified from IVIG, Baxter) • 6. […] PBS-Tween buffer (PH 7.2, 0.05% Tween 20, Kpl cat #51-12-01) II. Method: Detection of Anti-Beta Glucan IgG by ELISA • 1. Coat plate with oligosaccharides in PBS overnight at 4° C. • 2. Wash 3 times with 250 uL of PBS-Tween • 3. Empty plate • 4. Block plate with 200 uL of Casein for 1 hour at room temperature • 5. Empty plate • 6. Add 40 ug/mL anti-Beta 1,6 Glucan IgG (4 ug/well) in Casein • 7. Incubate for 45 min at room temperature • 8. Wash 3 times with 250 uL of PBS-Tween • 9. Empty plate • 10. Add detection antibody: anti-human IgG-HRP at 1:5000—in casein. Incubate for 45 min at room temperature in the dark • 11. Wash 5 times with 250 uL of PBS-Tween • 12. Empty plate • 13. Add 100 uL of one step ultra TMB • 14. Measure the absorbance at 620 nm every 1 min for 60 min Tables 1-3 provide ELISA assay data for certain glucan compounds.

Compound: [N-]=[N+]=NCCO[C@@H]1O[C@H](CO[C@@H]2O[C@H](CO[C@@H]3O[C@H](CO[C@@H]4O[C@H](CO[C@@H]5O[C@H](CO)[C@@H](O)[C@H](O)[C@H]5O)[C@@H](O)[C@H](O)[C@H]4O)[C@@H](O)[C@H](O)[C@H]3O)[C@@H](O)[C@H](O)[C@H]2O)[C@@H](O)[C@H](O)[C@H]1O [β-O(CH2)2N3, n=5, 2-azidoethyl [O-β-D-glucopyranosyl-1,6]4-β-D-glucopyranoside]
- ELISA assay data: glucan active in detection of anti-beta glucan IgG: +

Compound: OC[C@H]1O[C@@H](OC[C@H]2O[C@@H](OC[C@H]3O[C@@H](OC[C@H]4O[C@@H](OC[C@H]5O[C@H](OCCCl)[C@H](O)[C@@H](O)[C@@H]5O)[C@H](O)[C@@H](O)[C@@H]4O)[C@H](O)[C@@H](O)[C@@H]3O)[C@H](O)[C@@H](O)[C@@H]2O)[C@H](O)[C@@H](O)[C@@H]1O [α-O(CH2)2Cl, n=5, 2-chloroethyl [O-β-D-glucopyranosyl-1,6]4-D-glucopyranoside]
- ELISA assay data: glucan active in detection of anti-beta glucan IgG: +

Compound: OC[C@H]1O[C@@H](OC[C@H]2OC(O)[C@H](O)[C@@H](O)[C@@H]2O)[C@H](O)[C@@H](O)[C@@H]1O (stereo partly shown) [OH, n=2]
- ELISA assay data: glucan active in detection of anti-beta glucan IgG: +

Compound: O=C(O)C1CCN(CC(O)[C@@H](O)[C@H](O)[C@H](O)CO[C@@H]2O[C@H](CO[C@@H]3O[C@H](CO[C@@H]4O[C@H](CO)[C@@H](O)[C@H](O)[C@H]4O)[C@@H](O)[C@H](O)[C@H]3O)[C@@H](O)[C@H](O)[C@H]2O)CC1 (mixture of isomers) [4-piperidineCO2H, n=3, N-[6-[(O-β-D-glucopyranosyl-(1,6))2-β-D-glucopyranosyl](2RS,3R,4R,5R)-2,3,4,5-tetrahydroxyhexyl]piperidine-4-carboxylic acid]
- ELISA assay data: glucan active in detection of anti-beta glucan IgG: +

Compound: CN(CCCCCN)CC(O)[C@@H](O)[C@H](O)[C@H](O)CO[C@@H]1O[C@H](CO[C@@H]2O[C@H](CO[C@@H]3O[C@H](CO[C@@H]4O[C@H](CO[C@@H]5O[C@H](CO[C@@H]6O[C@H](CO)[C@@H](O)[C@H](O)[C@H]6O)[C@@H](O)[C@H](O)[C@H]5O)[C@@H](O)[C@H](O)[C@H]4O)[C@@H](O)[C@H](O)[C@H]3O)[C@@H](O)[C@H](O)[C@H]2O)[C@@H](O)[C@H](O)[C@H]1O (mixture of isomers) [N(Me),N(CH2)5NH2, n=6]
- ELISA assay data: glucan active in detection of anti-beta glucan IgG: +

Compound: [O-β-D-glucopyranosyl-1,6-]5-D-glucose [OH, n=6]
- ELISA assay data: glucan active in detection of anti-beta glucan IgG: +

Compound: [N-]=[N+]=NCCO[C@@H]1OC(CO[C@@H]2OC(CO[C@@H]3OC(CO[C@@H]4OC(CO[C@@H]5OC(CO[C@@H]6O[C@H](CO)[C@@H](O)[C@H](O)[C@H]6O)[C@@H](O)[C@H](O)[C@H]5O)[C@@H](O)[C@H](O)[C@H]4O)[C@@H](O)[C@H](O)[C@H]3O)[C@@H](O)[C@H](O)[C@H]2O)[C@@H](O)[C@H](O)[C@H]1O (stereo partly drawn) [β-O(CH2)2N3, n=6, 2-Azidoethyl [O-β-D-glucopyranosyl-1,6]5-β-D-glucopyranoside]
- ELISA assay data: glucan active in detection of anti-beta glucan IgG: +

Compound: OCC1OC(OCC2OC(OCC3OC(OCC4OC(OCC5OC(O)C(O)C(O)C5O)C(O)C(O)C4O)C(O)C(O)C3O)C(O)C(O)C2O)C(O)C(O)C1O (stereo not shown) [OH, n=5]
- ELISA assay data: glucan active in detection of anti-beta glucan IgG: +

Compound: [N-]=[N+]=NCCOC1OC(COC2OC(COC3OC(CO)C(O)C(O)C3O)C(O)C(O)C2O)C(O)C(O)C1O (stereo not drawn) [α-O(CH2)2N3, n=3]
- ELISA assay data: glucan active in detection of anti-beta glucan IgG: +

Compound: [(2R,3R,4R,5RS)-2,3,4,5-tetrahydroxy-6-[(N-methyl-N-(5-aminopentyl))amino]hexyl [O-β-D-glucopyranosyl-1,6]6-β-D-glucopyranoside [N(Me),N(CH2)5NH2, n=7]
- ELISA assay data: glucan active in detection of anti-beta glucan IgG: +

Compound: OCC1OC(OCC2OC(OCC3OC(OCC4OC(OCC5OC(OCC6OC(OCC7OC(OCC8OC(OCC9OC(O)C(O)C(O)C9O)C(O)C(O)C8O)C(O)C(O)C7O)C(O)C(O)C6O)C(O)C(O)C5O)C(O)C(O)C4O)C(O)C(O)C3O)C(O)C(O)C2O)C(O)C(O)C1O (stereo not shown) [OH, n=9]
- ELISA assay data: glucan active in detection of anti-beta glucan IgG: +

Compound: O=C(O)c1cc(OCc2cn(CCO[C@H]3O[C@H](CO[C@@H]4O[C@H](CO[C@@H]5O[C@H](CO)[C@@H](O)[C@H](O)[C@H]5O)[C@@H](O)[C@H](O)[C@H]4O)[C@@H](O)[C@H](O)[C@H]3O)nn2)cc(OCc2cn(CCO[C@H]3O[C@H](CO[C@@H]4O[C@H](CO[C@@H]5O[C@H](CO)[C@@H](O)[C@H](O)[C@H]5O)[C@@H](O)[C@H](O)[C@H]4O)[C@@H](O)[C@H](O)[C@H]3O)nn2)c1 [(β-D-glucopyanosy1-1,6)nα-O(CH2)2-, n=3, 3,5-bis(1[2-[O-β-D-glucopyranosyl-(1→6)-O-β-D-glucopyranosyl-(1→6)-α-D-glucopyranosyl]oxy]ethyl-1H-1,2,3-triazol-4-yl)methoxybenzoic acid]
- ELISA assay data: glucan active in detection of anti-beta glucan IgG: +

Compound: O=C(O)C1CCN(CC(O)[C@@H](O)[C@H](O)[C@H](O)CO[C@@H]2O[C@H](CO[C@@H]3O[C@H](CO[C@@H]4O[C@H](CO)[C@@H](O)[C@H](O)[C@H]4O)[C@@H](O)[C@H](O)[C@H]3O)[C@@H](O)[C@H](O)[C@H]2O)C1 (mixture of isomers) [3-pyrrolidineCO2H, n=3]
- ELISA assay data: glucan active in detection of anti-beta glucan IgG: +

Compound: COC1O[C@H](CO[C@@H]2O[C@H](CO[C@@H]3O[C@H](CO[C@@H]4O[C@H](CO[C@@H]5O[C@H](CO[C@@H]6O[C@H](CO[C@@H]7O[C@H](CO[C@@H]8O[C@H](CO[C@@H]9O[C@H](CO[C@@H]%10O[C@H](CO[C@@H]%11O[C@H](CO)[C@@H](O)[C@H](O)[C@H]%11O)[C@@H](O)[C@H](O)[C@H]%10O)[C@@H](O)[C@H](O)[C@H]9O)[C@@H](O)[C@H](O)[C@H]8O)[C@@H](O)[C@H](O)[C@H]7O)[C@@H](O)[C@H](O)[C@H]6O)[C@@H](O)[C@H](O)[C@H]5O)[C@@H](O)[C@H](O)[C@H]4O)[C@@H](O)[C@H](O)[C@H]3O)[C@@H](O)[C@H](O)[C@H]2O)[C@@H](O)[C@H](O)[C@H]1O (stereo partly drawn) [OCH3, n=11, methyl [O-β-D-glucopyranosyl-1,6]10-D-glucopyranoside]
- ELISA assay data: glucan active in detection of anti-beta glucan IgG: +

Compound: CN(Cc1ccc(C(=O)O)cc1)CC(O)[C@@H](O)[C@H](O)[C@H](O)CO[C@@H]1O[C@H](CO[C@@H]2O[C@H](CO[C@@H]3O[C@H](CO[C@@H]4O[C@H](CO[C@@H]5O[C@H](CO)[C@@H](O)[C@H](O)[C@H]5O)[C@@H](O)[C@H](O)[C@H]4O)[C@@H](O)[C@H](O)[C@H]3O)[C@@H](O)[C@H](O)[C@H]2O)[C@@H](O)[C@H](O)[C@H]1O (mixture of isomers) [N(Me),N(CH2)4-BzOH, n=5]
- ELISA assay data: glucan active in detection of anti-beta glucan IgG: +

Compound: COC1O[C@H](CO[C@@H]2O[C@H](CO[C@@H]3O[C@H](CO[C@@H]4O[C@H](CO[C@@H]5O[C@H](CO[C@@H]6O[C@H](CO[C@@H]7O[C@H](CO[C@@H]8O[C@H](CO[C@@H]9O[C@H](CO)[C@@H](O)[C@H](O)[C@H]9O)[C@@H](O)[C@H](O)[C@H]8O)[C@@H](O)[C@H](O)[C@H]7O)[C@@H](O)[C@H](O)[C@H]6O)[C@@H](O)[C@H](O)[C@H]5O)[C@@H](O)[C@H](O)[C@H]4O)[C@@H](O)[C@H](O)[C@H]3O)[C@@H](O)[C@H](O)[C@H]2O)[C@@H](O)[C@H](O)[C@H]1O (stereo partly drawn) [OCH3, n=9, methyl [O-β-D-glucopyranosyl-1,6]8-D-glucopyranoside]
- ELISA assay data: glucan active in detection of anti-beta glucan IgG: +
